Assay results published in publication PMC12844705, “Multitarget Mechanisms of (‒)‒Epigallocatechin-3-Gallate Against MRSA: From SraP L-Lectin Targeting to Synergistic Antibiotic Effects” (Pathogens, 2026).

Target: T1, Serine-rich adhesin for platelets (SraP), L-Lectin module (Staphylococcus aureus, UniProt Q8NUJ3)
T1 construct: SraP L-Lectin domain (L-Lectin of MW2)
Assay: SPR (Biacore T200, protein amine-coupled on CM5 chip, kinetic fit)
Format: binding

T1 sequence (Q8NUJ3 245-480): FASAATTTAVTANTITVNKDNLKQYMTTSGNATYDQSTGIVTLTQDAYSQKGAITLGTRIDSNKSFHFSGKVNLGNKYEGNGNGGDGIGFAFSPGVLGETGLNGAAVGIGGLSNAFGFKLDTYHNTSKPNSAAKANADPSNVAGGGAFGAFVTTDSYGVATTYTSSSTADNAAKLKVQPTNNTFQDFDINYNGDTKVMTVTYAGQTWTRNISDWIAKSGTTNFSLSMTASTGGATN

## O=C(O[C@@H]1Cc2c(O)cc(O)cc2O[C@@H]1c1cc(O)c(O)c(O)c1)c1cc(O)c(O)c(O)c1 [EGCG]
  Kd: 4 µM
